Measurements as given in ChEMBL document CHEMBL1151006, “Synthesis of bicyclic thiazolidine PAF antagonists” (Bioorg Med Chem Lett, 1993).

Test: Half life in rats after intravenous administration
Format: ADME, organism-based
Settings: rat, in vivo

half-life [min] | Compound
60 | O=C(c1ccccc1)c1cccc(NC(=O)[C@@H]2CSC(c3cccnc3)N2)c1 (some centres not stated)
42 | O=C(c1ccccc1)c1cccc(NC(=O)[C@H]2OC(=O)N3[C@@H](c4cccnc4)SC[C@@H]23)c1
